Consider 25 compounds from US10189854B2, “Substituted pyrimidine compounds” (Grünenthal GmbH, priority 2014, dated 2019).

Structures can show the parent of a compound that is named as a salt.

Sequence of human PDE4B1 (Q07343 whole entry): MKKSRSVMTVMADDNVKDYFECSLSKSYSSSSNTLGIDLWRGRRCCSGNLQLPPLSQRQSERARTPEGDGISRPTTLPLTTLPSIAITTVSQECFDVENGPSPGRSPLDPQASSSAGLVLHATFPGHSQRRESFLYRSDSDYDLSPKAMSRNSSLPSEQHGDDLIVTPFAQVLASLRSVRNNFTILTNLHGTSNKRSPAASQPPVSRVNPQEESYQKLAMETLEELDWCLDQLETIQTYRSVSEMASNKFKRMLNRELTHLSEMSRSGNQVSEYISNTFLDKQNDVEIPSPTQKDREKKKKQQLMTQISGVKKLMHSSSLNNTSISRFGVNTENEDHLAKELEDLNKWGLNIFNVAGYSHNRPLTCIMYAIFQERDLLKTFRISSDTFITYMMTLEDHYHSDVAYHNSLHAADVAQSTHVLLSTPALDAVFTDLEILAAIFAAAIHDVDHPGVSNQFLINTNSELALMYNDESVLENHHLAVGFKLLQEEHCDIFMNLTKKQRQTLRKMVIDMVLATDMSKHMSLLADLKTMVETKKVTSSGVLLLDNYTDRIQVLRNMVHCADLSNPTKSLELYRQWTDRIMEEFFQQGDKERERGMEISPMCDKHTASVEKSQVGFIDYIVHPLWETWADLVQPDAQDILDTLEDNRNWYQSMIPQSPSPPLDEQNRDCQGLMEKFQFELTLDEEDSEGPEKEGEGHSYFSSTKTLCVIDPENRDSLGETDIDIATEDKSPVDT

For the test, the target named is human PDE4B1 (Homo sapiens (Human), UniProt Q07343). As to the kind of experiment: TR-FRET assay using the LANCE Ultra cAMP kit to determine the activity of hPDE4B1. The format is biochemical. To be noted: IC50 inhibition of PDE4B, mean. From the text:
TR-FRET Assay Using the LANCE® Ultra cAMP Kit to Determine the Activity of hPDE4B1
The effects of the compounds on the activity of the human PDE4B1 was quantified by measuring the production of 5′AMP from cAMP using a human recombinant enzyme expressed in Sf9 cells and the LANCE® Ultra cAMP kit, a TR-FRET detection method from PerkinElmer. The human PDE4B1 enzyme was purchased from SignalChem Lifesciences (Catalog# P92-31BG, Lot# H296-2).
The test compound, reference compound or water (control) was mixed with the enzyme (0.96 U) in a reaction buffer containing 50 mM Tris-HCl, 50 mM MgCl2 and 5 mM DTT (pH 8.5). Thereafter, the reaction was initiated by addition of 500 nM cAMP (substrate) and the mixture was incubated for 30 minutes at room temperature. For control basal measurements, the enzyme was omitted from the reaction mixture. After 30 minutes, the reaction was stopped and diluted by a factor of 100 with the reaction buffer supplemented with 500 μM IBMX. The fluorescence donor (europium chelate-labeled cAMP) and the fluorescence acceptor (anti-cAMP antibody labeled with the ULight™ dye) were then added together with 500 μM IBMX to a 10 μl aliquot. After 60 minutes, the fluorescence transfer corresponding to the amount of residual cAMP was measured at λex=337 nm, λem=620 nm and λem=665 nm using a microplate reader (PHERAstar, BMG). The enzyme activity was determined by dividing the signal measured at 665 nm by that measured at 620 nm (ratio) multiplied by 10000. The results were expressed as percent inhibition of the control enzyme activity. IC50 values (IC50=concentration causing a half-maximal inhibition of control specific activity) were derived from dose response measurements with ten different concentrations (n=3; N=1-3).
Several compounds according to the invention are tested with above mentioned assay.
For orientation: In TR-FRET formats the signal depends on donor and acceptor labels being close together.
Take `CCc1ccnc(-c2cnc(N3CC4(CC4)c4ccc(C(=O)N(C)C)cc43)nc2)c1` [Compound 270, 1-[5-(4-Ethyl-pyridin-2-yl)-pyrimidin-2-yl]-N,N-dimethyl-spiro[1,2-dihydro-indole-3,1′-cyclopropane]-6-carboxylic acid amide]: the IC50 was under 0.1 µM.

Take `CN(C)C(=O)c1ccc2c(c1)N(c1ncc(-c3cc(N(C)C)ccn3)cn1)CC21CC1` [Compound 271, 1-[5-(4-Dimethylamino-pyridin-2-yl)-pyrimidin-2-yl]-N,N-dimethyl-spiro[1,2-dihydro-indole-3,1′-cyclopropane]-6-carboxylic acid amide]: the IC50 was under 0.1 µM.

In turn, `CN(CCO)C(=O)c1ccc2c(c1)N(c1ncc(-c3cc(N(C)C)ccn3)cn1)CC21CC1` [Compound 272, 1-[5-(4-Dimethylamino-pyridin-2-yl)-pyrimidin-2-yl]-N-(2-hydroxy-ethyl)-N-methyl-spiro[1,2-dihydro-indole-3,1′-cyclopropane]-6-carboxylic acid amide] yielded an IC50 of under 0.1 µM.

Turning to `CN(CCO)C(=O)c1ccc2c(c1)N(c1ncc(-c3cccc(Cl)c3)cn1)CC21CC1` [Compound 273, 1-[5-(3-Chlorophenyl)-pyrimidin-2-yl]-N-(2-hydroxy-ethyl)-N-methyl-spiro[1,2-dihydro-indole-3,1′-cyclopropane]-6-carboxylic acid amide], the IC50 is under 0.1 µM.

In the case of `O=C(c1ccc2c(c1)N(c1ncc(-c3cccnn3)cn1)CC21CC1)N1CC2CC1CN2` (stereo not shown) [Compound 274, (2,5-Diazabicyclo[2.2.1]heptan-2-yl)-[1-(5-pyridazin-3-yl-pyrimidin-2-yl)-spiro[1,2-dihydro-indole-3,1′-cyclopropane]-6-yl]-methanone hydrochloride], the IC50 is under 0.1 µM.

In turn, `CCc1ccnc(-c2cnc(N3CC4(CC4)c4ccc(C(=O)N5CCCC5)cc43)nc2)c1` [Compound 275, [1-[5-(4-Ethyl-pyridin-2-yl)-pyrimidin-2-yl]-spiro[1,2-dihydro-indole-3,1′-cyclopropane]-6-yl]-pyrrolidin-1-yl-methanone] displayed an IC50 of under 0.1 µM.

For the compound `CN(C)c1ccnc(-c2cnc(N3CC4(CC4)c4ccc(C(=O)N5CCCC5)cc43)nc2)c1` [Compound 276, [1-[5-(4-Dimethylamino-pyridin-2-yl)-pyrimidin-2-yl]-spiro[1,2-dihydro-indole-3,1′-cyclopropane]-6-yl]-pyrrolidin-1-yl-methanone], the IC50 was under 0.1 µM.

`CN(CCO)C(=O)c1ccc2c(c1)N(c1ncc(-c3cccc(S(C)(=O)=O)c3)cn1)CC21CC1` [Compound 277, N-(2-Hydroxy-ethyl)-N-methyl-1-[5-(3-methylsulfonyl-phenyl)-pyrimidin-2-yl]-spiro[1,2-dihydro-indole-3,1′-cyclopropane]-6-carboxylic acid amide] yielded a half-inhibitory concentration (IC50) of under 0.1 µM.

The compound `O=C(c1ccc2c(c1)N(c1ncc(-c3ccccc3F)cn1)CC21CC1)N(CCO)C1CC1` [Compound 278, N-Cyclopropyl-1-[5-(2-fluorophenyl)-pyrimidin-2-yl]-N-(2-hydroxy-ethyl]-spiro[1,2-dihydro-indole-3,1′-cyclopropane]-6-carboxylic acid amide] gave an IC50 of under 0.1 µM.

In turn, `CC(=O)Nc1ccnc(-c2cnc(N3CC4(CC4)c4ccc(C(=O)N5CC6CC5CN6)cc43)nc2)c1` (stereo not shown) [Compound 279, N-(2-(2-(6′-(2,5-diazabicyclo[2.2.1]heptane-2-carbonyl)spiro[cyclopropane-1,3′-indolin]-1′-yl)pyrimidin-5-yl)pyridin-4-yl)acetamide.HCl] registered an IC50 of under 0.1 µM.

`CN(CCO)C(=O)c1ccc2c(c1)N(c1ncc(-c3cccc(O)n3)cn1)CC21CC1` [Compound 280, N-(2-Hydroxy-ethyl)-1-[5-(6-hydroxy-pyridin-2-yl)-pyrimidin-2-yl]-N-methyl-spiro[1,2-dihydro-indole-3,1′-cyclopropane]-6-carboxylic acid amide] had an IC50 of under 0.1 µM.

With `CN(CCO)C(=O)c1ccc2c(c1)N(c1ncc(-c3cccc([S+](C)[O-])c3)cn1)CC21CC1` (stereo not shown) [Compound 281, N-(2-Hydorxy-ethyl)-N-methyl-1-[5-[3-(methylsulfinyl)-phenyl]pyrimidin-2-yl]-spiro[1,2-dihydro-indole-3,1′-cyclopropane]-6-carboxylic acid amide], the IC50 is under 0.1 µM.

`COc1cc(C)nc(-c2cnc(N3CC4(CC4)c4ccc(C(=O)N(C)CCO)cc43)nc2)c1` [Compound 282, N-(2-Hydroxy-ethyl)-1-[5-(4-methoxy--methyl-pyridin-2-yl)-pyrimidin-2-yl]-N-methyl-spiro[1,2-dihydro-indole-3,1′-cyclopropane]-6-carboxylic acid amide] gave an IC50 of under 0.1 µM.

On to `C[C@@H](O)CN(C)C(=O)c1ccc2c(c1)N(c1ncc(-c3ccccc3F)cn1)CC21CC1` [Compound 283, 1-[5-(2-Fluorophenyl)-pyrimidin-2-yl)-N-[(2R)-2-hydroxy-propyl]-N-methyl-spiro[1,2-dihydro-indole-3,1′-cyclopropane]-6-carboxylic acid amide], for which the IC50 is under 0.1 µM.

Turning to `C[C@H](O)CN(C)C(=O)c1ccc2c(c1)N(c1ncc(-c3ccccc3F)cn1)CC21CC1` [Compound 284, 1-[5-(2-Fluorophenyl)-pyrimidin-2-yl]-N-[(2S)-2-hydroxy-propyl]-N-methyl-spiro[1,2-dihydro-indole-3,1′-cyclopropane]-6-carboxylic acid amide], the IC50 was under 0.1 µM.

With `CC(CO)N(C)C(=O)c1ccc2c(c1)N(c1ncc(-c3ccccc3F)cn1)CC21CC1` (stereo not shown) [Compound 285, 1-[5-(2-Fluorophenyl)-pyrimidin-2-yl]-N-(2-hydroxy-1-methyl-ethyl)-N-methyl-spiro[1,2-dihydro-indole-3,1′-cyclopropane]-6-carboxylic acid amide], the IC50 was under 0.1 µM.

In the case of `Cc1cccc(-c2cnc(N3CC4(CC4)c4ccc(C(=O)N5CCNC(=O)C5)cc43)nc2)n1` [Compound 286, 4-[1-[5-(6-Methyl-pyridin-2-yl)-pyrimidin-2-yl]-spiro[1,2-dihydro-indole-3,1′-cyclopropane]-6-carbonyl]-piperazin-2-one], the IC50 was under 0.1 µM.

For `CN(CCO)C(=O)c1ccc2c(c1)N(c1ncc(-c3cc([S+](C)[O-])ccc3F)cn1)CC21CC1` (stereo not shown) [Compound 287, 1-[5-[2-Fluoro-5-(methylsulfinyl)-phenyl]-pyrimidin-2-yl]-N-(2-hydroxy-ethyl)-N-methyl-spiro[1,2-dihydro-indole-3,1′-cyclopropane]-6-carboxylic acid amide], the IC50 was under 0.1 µM.

Consider `CN(CCO)C(=O)c1ccc2c(c1)N(c1ncc(-c3cc([S+](C)[O-])ccn3)cn1)CC21CC1` (stereo not shown) [Compound 288, N-(2-Hydroxy-ethyl)-N-methyl-1-[5-[4-(methylsulfinyl)-pyridin-2-yl]-pyrimidin-2-yl]-spiro[1,2-dihydro-indole-3,1′-cyclopropane]-6-carboxylic acid amide], for which the IC50 was under 0.1 µM.

Regarding `CN(CCO)C(=O)c1ccc2c(c1)N(c1ncc(-c3cc(S(C)(=O)=O)ccn3)cn1)CC21CC1` [Compound 289, N-(2-Hydroxy-ethyl)-N-methyl-1-[5-(4-methylsulfonyl-pyridin-2-yl)-pyrimidin-2-yl]-spiro[1,2-dihydro-indole-3,1′-cyclopropane]-6-carboxylic acid amide], the IC50 was under 0.1 µM.

In the case of `Cc1cnnc(-c2cnc(N3CC4(CC4)c4ccc(C(=O)N(C)CCO)cc43)nc2)c1` [Compound 290, N-(2-hydroxyethyl)-N-methyl-1′-(5-(5-methylpyridazin-3-yl)pyrimidin-2-yl)spiro[cyclopropane-1,3′-indoline]-6′-carboxamide], the IC50 is under 0.1 µM.

`O=C(c1ccc2c(c1)N(c1ncc(-c3cc(N4CCCC4)ccn3)cn1)CC21CC1)N1CCOCC1` [Compound 291, Morpholin-4-yl-[1-[5-(4-pyrrolidin1--yl-pyridin-2-yl)-pyrimidin-2-yl]-spiro[1,2-dihydro-indole-3,1′-cyclopropane]-6-yl]-methanone] returned an IC50 of under 0.1 µM.

As for `CCNc1ccnc(-c2cnc(N3CC4(CC4)c4ccc(C(=O)N5CCOCC5)cc43)nc2)c1` [Compound 292, [1-[5-(4-Ethylamino-pyridin-2-yl)-pyrimidin-2-yl]-spiro[1,2-dihydro-indole-3,1′-cyclopropane]-6-yl]-morpholin-4-yl-methanone], the IC50 was under 0.1 µM.

With `CC(O)c1ccnc(-c2cnc(N3CC4(CC4)c4ccc(C(=O)N5CCOCC5)cc43)nc2)c1` (stereo not shown) [Compound 293, [1-[5-[4-(1-Hydroxy-ethyl)-pyridin-2-yl]-pyrimidin-2-yl]-spiro[1,2-dihydro-indole-3,1′-cyclopropane]-6-yl]-morpholin-4-yl-methanone], the IC50 was under 0.1 µM.

The compound `CC(C)(O)c1ccnc(-c2cnc(N3CC4(CC4)c4ccc(C(=O)N5CCOCC5)cc43)nc2)c1` [Compound 294, [1-[5-[4-(1-Hydroxy-1-methyl-ethyl)-pyridin-2-yl]-pyrimidin-2-yl]-spiro[1,2-dihydro-indole-3,1′-cyclopropane]-6-yl]-morpholin-4-yl-methanone] returned an IC50 of under 0.1 µM.

Usually IC50 stands for the concentration needed to halve the response being measured. A high value points to weaker potency.
